Measured values taken from PMC3352337, “Synergistic Antimycobacterial Actions of Knowltonia vesicatoria (L.f) Sims” (Evidence-based Complementary and Alternative Medicine : eCAM, 2012).
In brackets after ≈: the same amount, converted by molar mass. Like-named read-outs stand apart in the source and are kept apart here. Marks after values point to notes of the source that are not given here. *1 amine or outer side, *2 acyl side, *3 side chain or, on linkers, in order; H or OH if unused. Where a SMILES comes first, the peptide text is derived from it. Bridges are numbered along the chain shown (N, C = ends). Roman numbers before positions name the chains, in order. [ ]: non-standard residue; d: D form. Actinocin(9to1) = Cc1c2oc3c(C)ccc(C(=O)[*:1])c3nc-2c(C(=O)[*:2])c(N)c1=O; NMeV = CN[C@H](C(=O)O)C(C)C; Sar = CNCC(=O)O

Legend:
M. tuberculosis [1] = details: cited from earlier work
[2] = tested on: M. tuberculosis H37Rv (ATCC 27294); assay: microbe, parasite or virus in culture; format: cell-based, Mycobacterium tuberculosis; details: for ΔGI4-3 ± SD: BACTEC growth index change, V2 10^-2 inoculum control 22.0 ± 2.94; for MIC: Mycobacterium tuberculosis, read-out: MIC (minimum inhibitory concentration)
[3] = XTT cytotoxicity assay on PMA-differentiated U937 cells; details: human, PMA-differentiated U937 cells (macrophage-like), pH 7.2
U937 cells = assay: as above; details: for IC50: Homo sapiens, U-937, 72 h
M. tuberculosis [4] = assay: Microplate assay MIC against M. tuberculosis (compound 2); format: cell-based, Mycobacterium tuberculosis; details: BACTEC MIC not determined
[5] = tested on: Mycobacterium smegmatis (MC^2 155); assay: Microdilution (microplate INT) susceptibility assay on M. smegmatis; format: cell-based; details: Mycolicibacterium smegmatis
Description: Cryopreserved or freshly scraped colonies were suspended in fresh Middlebrook 7H9 broth (Sigma-Aldrich Chemical Co., South Africa) and incubated for 24 h at 37°C. The overnight liquid culture was then transferred to a sterile test tube containing 20–25 glass beads (with a 2.00 mm diameter) and homogenised by using a vortex mixer (Heidolph, Germany) for 5–10 min. The broth culture was then left still for 5–10 min to let larger clumps of mycobacteria settle. The supernatant was carefully decanted to a sterile flask and adjusted with Middlebrook 7H9 broth base to an optical density of 0.2 (log phase) at 550 nm (Beckman DU-720 UV spectrophotometer), yielding 1.26 × 10^8 colony-forming units per millilitre (CFU/mL). The microdilution test was performed in 96-well microtiter plates as described earlier.
The plant extract and fractions were dissolved in 10% dimethyl sulfoxide (DMSO) to obtain a stock concentration of 10 mg/mL. Ciprofloxacin (Sigma-Aldrich Chemical Co., South Africa) at final concentrations ranging from 2.00 × 10^−3 to 7.80 × 10^−5 mg/mL served as the positive drug control. Serial twofold dilutions of each test sample were made with Middlebrook 7H9 broth base (Sigma-Aldrich Chemical Co., South Africa) to yield volumes of […] with final concentrations ranging from 2.50 to 0.08 mg/mL. […]

[6] = read-out: IC50 (fifty percent inhibitory concentration)

SMILES: C=CC(O)(CC[C@@H](C)[C@H]1CC[C@H]2[C@@H]3CC=C4C[C@@H](O)CC[C@]4(C)[C@H]3CC[C@]12C)C(C)C (some centres unmarked) [saringosterol]
- MIC (M. tuberculosis [1]; M. tb ref 34): 0.250 µg/mL (≈ 0.583 µM)

SMILES: NNC(=O)c1ccncc1 [INH, isoniazid]
- ΔGI4-3 ± SD [2]: −2.50 ± 2.12
- MIC (minimum inhibitory concentration) ([2]; BACTEC radiometric): 0.20 µg/mL (≈ 1.46 µM)
- MIC ([2]; BACTEC radiometric): 0.2 µg/mL (≈ 1.46 µM)
- viability at 72 h, 200 μg/mL [3]: 80%
- IC50 (U937 cells; [6]): > 200 µg/mL

SMILES: O=C1C=CC(CO)O1 (centres unmarked) [Compound (2), 5-(hydroxymethyl)furan-2(5H)-one]
- MIC determined via microplate assay (M. tuberculosis [4]): 100.0^k μg/mL
- MIC (M. tuberculosis [4]; Mycobacterium tuberculosis, read-out: MIC determined via microplate assay): 200 µg/mL (≈ 1750 µM)
- IC50 (U937 cells; [6]): 44.7 ± 0.5 µg/mL (≈ 392 µM)

SMILES: CCC(=CC[C@@H](C)[C@H]1CC[C@H]2[C@@H]3CC=C4CC(O)CC[C@]4(C)[C@H]3CC[C@]12C)C(C)C (some centres unmarked) [Compound (1), Stigmasta-5,23-dien-3-ol]
- ΔGI4-3 ± SD [2]: −9.00 ± 1.41
- MIC ([2]; BACTEC radiometric): 50 µg/mL (≈ 121 µM)
- IC50 (U937 cells; [6]): 16.41 ± 0.135 µg/mL (≈ 39.8 µM)

SMILES: O=C(O)c1cn(C2CC2)c2cc(N3CCNCC3)c(F)cc2c1=O [Ciprofloxacin]
- MIC ([5]; MC^2155, 24 h, INT microplate, read-out: MIC (minimum inhibitory concentration)): 1.25 µg/mL (≈ 3.77 µM)
- MBC ([5]; MC^2155, 48 h subculture, INT, read-out: MBC (minimum bactericidal concentration)): 1.25 µg/mL (≈ 3.77 µM)

SMILES: CC[C@H](/C=C/[C@@H](C)[C@H]1CC[C@H]2[C@@H]3CC=C4C[C@@H](O)CC[C@]4(C)[C@H]3CC[C@]12C)C(C)C [stigmasterol]
- MIC (M. tuberculosis [1]; phytosterols from Morinda citrifolia against M. tb ref 33 (Saludes et al.)): 32.00 µg/mL (≈ 77.5 µM)

SMILES: Cc1c2oc3c(C)ccc(C(=O)N[C@@H]4C(=O)N[C@H](C(C)C)C(=O)N5CCC[C@H]5C(=O)N(C)CC(=O)N(C)[C@@H](C(C)C)C(=O)O[C@@H]4C)c3nc-2c(C(=O)N[C@@H]2C(=O)N[C@H](C(C)C)C(=O)N3CCC[C@H]3C(=O)N(C)CC(=O)N(C)[C@@H](C(C)C)C(=O)O[C@@H]2C)c(N)c1=O [Actinomycin D] (I: T[dV]P[Sar][NMeV] / II: T[dV]P[Sar][NMeV]; ester I:1-I:C, II:1-II:C; linker I:N-II:N via Actinocin(9to1))
- IC50 (U937 cells; read-out: IC50 (fifty percent inhibitory concentration), U937 macrophages, 72 h, XTT): 0.0038 µg/mL (≈ 0.00303 µM)
- IC50 (fifty percent inhibitory concentration) (U937 cells; U937 macrophages, 72 h, XTT): 3.820 ± 0.258 ×10^−3 μg/mL
